# According to patent US20060025419A1, “Imidazoquinoxaline compound for the treatment of melanoma” (priority 2004, published 2006):
# Legend:
# [1] = system: SK-Mel-5 cells; experiment: Mitochondrial membrane potential (Δψm), DiOC6 and FACS; assay type: cell-based, human; conditions: SK-Mel-5, 10 μM
# Protocol: FIGS. 5A-5E. […] (FIG. 5A) Redistribution of Bcl-2 and Bax in mitochondria. […] Subcellular mitochondria and cytoplasm were prepared and subjected to Western blot analysis for Bcl-2 and Bax. (FIG. 5B) Dissipation of mitochondrial Δψm. […] After exposure, mitochondria were isolated and incubated with 80 μM 3,3′dihexyloxacarbocyanine iodide (DiOC6) at 37° C. for 15 min. Δψm was determined by FACS analysis using 484/530 nm filters within 10 min while gating the forward and sideward scatters on intact mitochondria (FIG. 5C). (FIG. 5D) Release of cytochrome-C and AIF. […] Subcellular extracts were prepared and subjected to Western blot analysis for cytochrome-C and AIF. […] The supernatant was assessed for cytochrome-c release. […]
# For quantification of cell death, DNA content was analyzed on a FACScan (Becton Dickinson, San Jose, Calif.). […] Cell fluorescence was measured by flow cytometry with 488 nm excitation and 620 nm emission filters and data were analyzed using DNA content histogram deconvolution software (Multicycle, Phoenix Flow Systems). […] ROS were determined by FACS analysis with 488 nm excitation and 585 emission filters.
# Mitochondria play a crucial role in the regulation of programmed cell death (Zamzami et al., 1995a; 1995b; 1996a; 1996b). […] The change in mitochondrial membrane potential (Δψm) was determined by FACS analysis after the mitochondria were stained with DiOC6.
# [2] = system: NF-κB; experiment: NF-κB-dependent luciferase reporter assay; assay type: cell-based, human; conditions: 36 h
# Protocol: (§1) FIGS. 2A-2D. […] SK-Mel-5 cells were plated in 6-well plates (1.5×10^5 cells per well) and then cotransfected with 1 μg of HIV long terminal repeat NF-κB-luciferase vector and β-galactosidase vector DNA using Lipofectamine Plus reagent. Twenty-four hours after transfection, cells in duplicate plates were treated with 0, 0.1, 1 and 10 μM of BMS-345541in DMSO and incubated for an additional 36 h. Cell extract was prepared and luciferase activity was detected. Luciferase activity was normalized to β-galactosidase activity. […] ATP. The [γ-^32P]-labeled IκBα protein was visualized by autoradiography. […] The supernatants from B were cleared by centrifugation, or (FIG. 2D) sera were collected from mice, and subjected to ELISA assay for CXCL1 according to the manufacture's protocol. Data shown are from a representative data set from two experiments performed in duplicate (total n=4 for each point). For ELISA; the mean value is representative of serum samples from five mice.
# [3] = system: SK-Mel-5 cells; experiment: Nuclear apoptosis (DNA fragmentation) by flow cytometry; assay type: cell-based, human; conditions: for rate of apoptotic cells: 10 μM, 24 h
# Protocol: (§2) FIGS. 4A-4H. […] Paraffin-embedded tumor tissues were subjected to H&E staining (FIGS. 4C & D) and DeadEnd Fluorometric TUNEL-assay for detection of apoptosis (FIGS. 4E & F). The TUNEL-positive cells are visualized in green fluorescence in a red (Propidium Iodide) background by fluorescence microscopy. […] After 36 h incubation, cells were collected and fixed with 1% formaldehyde and 70% ice-cold ethanol. The apoptotic cells were examined using TUNEL-assay and analyzed by flow cytometry through measuring fluorescein-12-dUTP at 520 nm. The apoptotic rate is indicated in each box. Data shown are represented one of three independent experiments. […] Cells were fixed and stained with Propidium iodide. Cell fluorescence was measured by flow cytometry and the data were analyzed using DNA content histogram deconvolution software (Multicycle from Phoenix Flow Systems). The percentage of apoptotic cells with fragmented DNA (PI intensity sub-G0/G1) is indicated at each time point. The experiments were repeated twice, in duplicates for each point (total n=4).
# [4] = target: T1, IKK (Homo sapiens, UniProt O14920+O15111); experiment: Cell-free IKK kinase assay with washing (reversibility); assay type: biochemical; conditions: immunopurified IKK, 10 μM, 20 min, washed three times
# T1 construct: Equal aliquots of cytoplasmic IKK proteins were immunoprecipitated with anti-IKKα/β antibodies; endogenous in cells; host or cells: SK-Mel-5 human melanoma cells, cytoplasmic extract, immunoprecipitated on Protein A/G agarose beads
# T1 sequence (O14920 whole entry): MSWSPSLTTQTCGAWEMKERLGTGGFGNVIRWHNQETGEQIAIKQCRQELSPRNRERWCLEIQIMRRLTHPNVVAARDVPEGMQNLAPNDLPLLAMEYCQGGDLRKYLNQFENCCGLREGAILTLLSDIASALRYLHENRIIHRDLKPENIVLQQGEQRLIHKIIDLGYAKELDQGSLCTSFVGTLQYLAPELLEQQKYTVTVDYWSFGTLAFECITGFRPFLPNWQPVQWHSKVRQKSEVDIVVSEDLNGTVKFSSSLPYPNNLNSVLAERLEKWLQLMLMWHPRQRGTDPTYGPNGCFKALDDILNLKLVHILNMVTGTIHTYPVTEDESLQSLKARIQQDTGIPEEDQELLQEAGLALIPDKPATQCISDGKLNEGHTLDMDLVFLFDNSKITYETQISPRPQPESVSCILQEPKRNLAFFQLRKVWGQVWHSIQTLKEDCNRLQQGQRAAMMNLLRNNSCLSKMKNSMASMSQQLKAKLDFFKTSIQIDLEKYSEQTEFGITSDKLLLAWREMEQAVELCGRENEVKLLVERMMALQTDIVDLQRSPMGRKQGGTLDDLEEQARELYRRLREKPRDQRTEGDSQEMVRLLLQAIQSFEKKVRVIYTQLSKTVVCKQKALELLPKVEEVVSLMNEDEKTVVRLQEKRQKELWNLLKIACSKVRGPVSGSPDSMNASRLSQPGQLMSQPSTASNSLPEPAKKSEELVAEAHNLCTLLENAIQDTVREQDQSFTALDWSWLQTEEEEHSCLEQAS
# T1 sequence (O15111 whole entry): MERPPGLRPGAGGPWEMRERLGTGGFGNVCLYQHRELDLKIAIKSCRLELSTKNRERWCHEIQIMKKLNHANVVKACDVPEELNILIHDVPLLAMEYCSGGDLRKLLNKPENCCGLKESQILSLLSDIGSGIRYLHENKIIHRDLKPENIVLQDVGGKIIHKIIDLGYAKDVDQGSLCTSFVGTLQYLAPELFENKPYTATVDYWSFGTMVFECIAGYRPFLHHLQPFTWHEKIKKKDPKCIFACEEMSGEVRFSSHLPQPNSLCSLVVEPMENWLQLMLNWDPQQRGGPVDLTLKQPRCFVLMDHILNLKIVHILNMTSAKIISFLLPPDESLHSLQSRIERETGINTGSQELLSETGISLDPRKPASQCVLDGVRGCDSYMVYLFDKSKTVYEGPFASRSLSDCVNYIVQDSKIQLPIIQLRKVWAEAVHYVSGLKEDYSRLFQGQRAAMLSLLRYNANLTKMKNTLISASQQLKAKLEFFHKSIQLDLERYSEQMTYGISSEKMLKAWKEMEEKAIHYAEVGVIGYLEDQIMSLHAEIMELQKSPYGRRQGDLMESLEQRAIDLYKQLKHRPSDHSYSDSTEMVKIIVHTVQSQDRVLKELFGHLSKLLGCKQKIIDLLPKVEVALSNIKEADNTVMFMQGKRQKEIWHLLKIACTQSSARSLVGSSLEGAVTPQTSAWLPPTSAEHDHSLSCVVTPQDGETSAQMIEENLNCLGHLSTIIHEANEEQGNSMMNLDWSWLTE
# T1 sequence (Q9Y6K9 whole entry partner): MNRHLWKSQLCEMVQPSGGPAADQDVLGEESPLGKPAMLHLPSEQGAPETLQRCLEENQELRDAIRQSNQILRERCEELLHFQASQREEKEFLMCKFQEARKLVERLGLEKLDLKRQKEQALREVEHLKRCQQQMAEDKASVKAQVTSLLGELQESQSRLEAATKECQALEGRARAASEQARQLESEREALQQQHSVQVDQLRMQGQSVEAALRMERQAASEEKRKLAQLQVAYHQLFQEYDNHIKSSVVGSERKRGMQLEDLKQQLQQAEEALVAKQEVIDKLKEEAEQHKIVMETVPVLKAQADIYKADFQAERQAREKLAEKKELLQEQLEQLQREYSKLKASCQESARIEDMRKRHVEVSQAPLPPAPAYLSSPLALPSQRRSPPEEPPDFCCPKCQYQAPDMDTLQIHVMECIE
# Protocol: To analyze the IKK activity, cytoplasmic extracts were prepared from cells cultured for 24 h in serum-free medium. Cells were mechanically released from tissue culture plates by scraping in cold PBS according to standard protocols. Cells were collected by centrifugation (800×g), and then resuspended in lysis buffer [10 mM HEPES (pH 7.9), 10 mM KCl, 0.1 mM EDTA, 0.1 mM EGTA, 0.1% NP40, 1 mM DTT, and 0.5 mM phenylmethylsulfonyl fluoride] with Complete Protein Inhibitors (Roche). 400 μg aliquots of cytoplasmic extracts were incubated with 1 μg each of IKKα and IKKβ polyclonal antibodies (Santa Cruz Biotechnology) and 60 μg aliquots of Protein A/G agarose-conjugated beads for 4 h at 4° C. […] The reaction mixtures were resolved by SDS-PAGE, transferred to nitrocellulose membrane, and phosphorylated IκB was detected by autoradiography.
# Equal aliquots of cytoplasmic IKK proteins were immunoprecipitated with anti-IKKα/β antibodies and IKK activity was determined in an in vitro kinase assay using recombinant IκBα protein as a substrate for IκB kinase. The IKK activity was determined by autoradiography.
# [5] = system: melanoma tumor; experiment: H&E and TUNEL staining of melanoma tumor sections; assay type: in vivo, mice
# Protocol: as §2, with “The percentage of apoptotic cells with fragmented DNA (PI intensity sub-G0/G1) is indicated at each time point. The experiments were repeated twice, in duplicates for each point (total n=4).” left out
# In melanoma, constitutive activation of NF-κB confers tumor survival capacity and escape from apoptosis (Richmond, 2002). […] Apoptotic cells were labeled using DeadEnd Fluorometric TUNEL reagent and analyzed by flow cytometry. […] Thirty-six hours after transfection, cells were collected, labeled with TUNEL reagent and analyzed by flow cytometry. […] Induction of DNA fragmentation, a hallmark of apoptosis, was evaluated by staining DNA with ethidium bromide followed by quantization by FACS analysis.
# [6] = system: CXCL1; experiment: CXCL1 ELISA of melanoma cell culture medium; assay type: cell-based, human; conditions: SK-Mel-5 supernatant, 14 h
# Protocol: as §1
# To quantify the CXCL1 expression levels in vivo and in vitro, serum was collected at the end of the experiments from mice bearing SK-Mel-5 melanoma tumors or from the cleared supernatants of melanoma cell culture medium. Briefly, 1.5×10^5 of SK-Mel-5 cells/well were seeded in six-well plates in duplicate in DMEM/F12 medium containing 10% FBS.
smiles,measurement,setting,value
"Cc1ccc2nc(NCCN)c3ncc(C)n3c2c1.Cl [BMS-345541, 4(2′-aminoethyl)amino-1,8-dimethylimidazo(1,2-a)quinoxaline]",loss of mitochondrial membrane potential,[1]; 24 h,16±1.5%
same,loss of mitochondrial membrane potential,[1]; 48 h,87±5.4%
same,reduction in NF-κB-dependent luciferase activity,"[2]; SK-Mel-5, 0.1 μM",36%
same,reduction in NF-κB-dependent luciferase activity,"[2]; SK-Mel-5, 1.0 μM",75%
same,reduction in NF-κB-dependent luciferase activity,"[2]; SK-Mel-5, 10 μM",95%
same,rate of apoptotic cells,[3]; AIF siRNA-transfected cells,10.3±3.8%
same,rate of apoptotic cells,[3]; control siRNA-transfected cells,24.3±6.8%
same,induction of DNA fragmentation,"[3]; SK-Mel-5, 10 μM, 0-48 h (FIG. 4H)",time-dependent
same,reversibility of IKK inhibition by washing,[4],reversed after the washing steps
same,"nuclear apoptosis in tumor sections (H&E, TUNEL)",[5]; 25 mg/kg daily,obvious nuclear condensation and DNA fragment staining
same,TUNEL staining of tumor sections,[5]; 75 mg/kg,TUNEL staining appeared extensively over the tumor sections
same,CXCL1 expression in melanoma cell cultures,[6],suppressed in a concentration-dependent manner
